We go through eleven compounds from US6337397B1, “Pyrimidine derivatives and their salts, useful for making benzoxazepine derivatives” (Suntory Limited, priority 1995, dated 2002).

Usually melting point stands for the temperature, or range, at which the solid turns liquid. In general, IC50 refers to the point on the concentration scale where inhibition reaches its midpoint. As a reminder, the LD50 is the dose at which mortality reaches 50%. The low end stands for a more toxic substance, the high end for a less toxic substance.

The test system of one data set is male Wistar rats. Nature of the data set: Anticonflict action, NaCl-Lick conflict method. Type of data set: in vivo. The note with it: Rattus norvegicus, po, 1 hour before the test; number of licks in 5 minutes of 2% saline; rats deprived of water for 48 hours; read-out: Minimum effective dosage. As for the experimental part:
The anticonflict action of the compounds of the general formulae (I), (II), and (III) was evaluated in accordance with the NaCl-Lick conflict method of Tanga et al. (Pharmacol., Biochem., Behav., vol. 32, pp. 773-776, 1989). That is, six-week old male Wistar rats in groups of six to 10 were deprived of water for 48 hours and placed in an experimental apparatus placed in a soundproof box (apparatus made of acrylic resin, 20×20×30 cm, provided with a drinking outlet having a diameter of 1 cm at height of 8 cm from the floor, designed to be able to measure the number of drops per unit hour by a drinkometer), and the anticonflict action of the medicament was evaluated using as an indicator the number of drops (number of licks) in 5 minutes from the start of drinking of 2% saline. The tested medicament was orally administered in an amount of 0.2 ml/100 g body weight 1 hour before the start of the test.

The target of a further data set is T1, dopamine D2 receptor (Rattus norvegicus, UniProt P61169).
T1 construct: the corpus striatums excised from male Wistar rats were homogenized; from tissue; host or cells: rat corpus striatum membrane homogenate
T1 sequence (P61169 whole entry): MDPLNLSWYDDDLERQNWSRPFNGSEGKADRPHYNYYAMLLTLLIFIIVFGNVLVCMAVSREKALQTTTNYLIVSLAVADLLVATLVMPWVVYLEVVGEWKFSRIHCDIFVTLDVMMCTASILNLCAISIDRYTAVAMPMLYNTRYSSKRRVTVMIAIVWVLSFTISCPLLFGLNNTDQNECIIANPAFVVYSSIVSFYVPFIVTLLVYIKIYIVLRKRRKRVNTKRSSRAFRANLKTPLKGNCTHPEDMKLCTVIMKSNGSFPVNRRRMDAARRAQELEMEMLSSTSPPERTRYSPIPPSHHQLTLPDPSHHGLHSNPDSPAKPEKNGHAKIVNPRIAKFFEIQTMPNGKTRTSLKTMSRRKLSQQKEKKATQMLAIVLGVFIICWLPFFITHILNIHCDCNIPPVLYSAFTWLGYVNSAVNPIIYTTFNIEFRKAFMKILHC
Briefly: Affinity with dopamine D2 receptor, [3H]Raclopride binding. The arrangement: species or system male Wistar rats. The note with it: 1.0 nM [3H]Raclopride, rat corpus striatum preparation, 25° C., 60 minutes. How it is done:
The affinity of the compounds of the general formulas (I), (II), and (III) with a dopamine D2 receptor was evaluated in accordance with the method of Kakohler et al. (Biochem. Pharmacol., vol. 34, pp. 2251-2259, 1985). That is, the corpus striatums excised from male Wistar rats were homogenized with the addition of 120 mM sodium chloride, 5 mM potassium chloride, 2 mM calcium chloride, 1 mM magnesium chloride, and 0.01% ascorbic acid contained in 50 mM tris-phosphate buffer (pH 7.7). The homogenate was centrifuged at […] and 35000×g for 10 minutes. The same buffer was added to the resultant precipitate,then this was homogenized again and was similarly centrifuged to obtain the precipitate. The same buffer was added to this precipitate which was then again homogenized to prepare the dopamine D2 receptor.
For the binding experiment, use was made of 1.0 nM of [3H]3,5-dichloro-N-[(1-ethyl-2-pyrrolidinyl)methyl]-6-hydroxy-o-anisamide (Raclopride), various concentrations of test samples were added to a system of 0.34 mg/ml of protein or a total of 0.25 ml, incubation was performed at 25° C. for 60 minutes, then the radioactivity was measured in the same way as in the Evaluation Example 1 to find the degree of binding.
The 50% inhibiting concentration of binding affinity (IC50) was calculated from the degrees of binding at various concentrations of the added samples. […] The IC50 values of typical compounds are shown together with the IC50 values for the serotonin receptor.

Data set [1] addresses T2, serotonin 5-HT1A receptor (Rattus norvegicus, UniProt P19327).
T2 construct: the hippocampuses extracted from male Wistar rats were homogenized; from tissue; host or cells: rat hippocampus membrane homogenate
T2 sequence (P19327 1-422): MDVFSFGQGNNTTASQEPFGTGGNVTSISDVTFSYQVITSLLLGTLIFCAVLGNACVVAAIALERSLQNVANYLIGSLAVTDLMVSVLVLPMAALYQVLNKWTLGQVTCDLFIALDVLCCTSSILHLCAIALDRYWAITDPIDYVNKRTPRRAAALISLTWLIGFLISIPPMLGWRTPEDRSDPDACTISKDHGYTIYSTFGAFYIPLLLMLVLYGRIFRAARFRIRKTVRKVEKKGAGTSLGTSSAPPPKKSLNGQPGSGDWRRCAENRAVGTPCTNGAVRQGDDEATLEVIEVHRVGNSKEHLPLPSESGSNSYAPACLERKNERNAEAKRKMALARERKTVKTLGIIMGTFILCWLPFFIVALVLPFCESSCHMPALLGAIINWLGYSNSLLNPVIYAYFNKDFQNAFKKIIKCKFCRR
Nature of the data set: Affinity with serotonin receptor, [3H]8-OH-DPAT binding. Also noted: species or system male Wistar rats. The note with it: for D2/5-HT1A: ratio of IC50 (D2) to IC50 (5-HT1A). As for the experimental part: The affinity of the compounds of the general formulas (I), (II), and (III) with a serotonin receptor was evaluated in accordance with the method of S. T. Peuroutka et al. (J. Neurochem., vol. 47, pp. 529-540, 1986). That is, the hippocampuses extracted from male Wistar rats were homogenized while adding 50 mM tris-phosphate buffer (pH 7.7). The homogenate was centrifuged at […] and 40000×g for 10 minutes. The same buffer was added to the obtained precipitate, then this was homogenized again and was similarly centrifuged to obtain the precipitate. This homogenization-centrifugation operation was repeated two times to obtain a final precipitate to which was then added 10 uM of N-methyl-N-2-propynylbenzylamine (Pargyline), 4 mM of calcium chloride, and 0.1% ascorbic acid contained in a 50 mM tris-phosphate buffer (ph 7.7). This was then homogenized to prepare the serotonin receptor.
For the binding experiment, 0.4 nM of [3H]2-di-n-propylamino-8-hydroxy-1,2,3,4-tetrahydronapthalene (8-DPAT; 8-hydroxy-N,N-dipropyl-2-aminotetetrilin) was used, various concentrations of test samples were added to a system of 0.25 mg/ml of protein or a total of 0.25 ml, and these were incubated at 25° C. for 30 minutes. A Whatman GF/C filter was used to filter each of the reaction solutions, then the filter was washed by 20 mM tris-phosphate buffer (pH 7.7). The serotonin receptor was trapped by the filter and the radio activity of the 8-OH-DAPT bonded to it was measured to find the degree of binding. The 50% inhibiting concentration of binding affinity (IC50) was calculated from the degrees of binding in the various sample concentrations. […] The IC50 values of typical compounds are shown together with the IC50 values with respect to the dopamine D2 receptor.

For another data set, the system named is Wistar male rats. Briefly: Ischemic brain tissue damage, transient right middle cerebral artery occlusion (MCAO) model. It counts as in vivo. The note with it: Rattus norvegicus, sc, 240 h; s.c., immediately after occlusion; 60 minutes occlusion; brain tissue damage 10 days after restart of blood flow (number of benzodiazepine bindings); read-out: Minimum effective dosage. How it is done:
The evaluation of the efficacy on ischemic brain damage of the compounds of the general formulae (I), (II), and (III) was performed using the transient right middle cerebral artery occlusion (MCAO) model of Koizumi et al. (Jap. J. Stroke, vol. 8, pp. 1 to 8, 1986). That is, 10 to 11 week old Wistar male rats were used and the right middle cerebral artery was temporarily obstructed for 60 minutes. 10 days after the restart of the blood flow, the brains were excised and the degree of brain tissue damage of the cerebral cortex and corpus striatum of the obstructed side were evaluated by the damage marker of the number of benzodiazepine bindings. The tested drugs were dissolved in physiological saline and administered subcutaneously at the backs of the rats immediately after the right middle cerebral artery occlusion. As a control, physiological saline of […] body weight was similarly administered.

Data set [2] is described as follows: Acute toxicity after oral administration. The note with it: rat, in vivo; 24 hours after oral administration, six-week old male rats. From the text:
This value is over 50 times or more of the expected clinical dosage and therefore, it is judged that the safety of the compounds according to the present invention is high.

[3] abbreviates: 0.4 nM [3H]8-OH-DPAT, rat hippocampus preparation, 25° C., 30 minutes, read-out: IC50 (5-HT1A).

Like-named read-outs stand apart in the source and are kept apart here.

In turn, `O=C1c2ccccc2OC=CN1CCCCN1CCN(c2ccccn2)CC1` [Example 32, 4,5-dihydro-4-(4-(4-(2-pyridyl)piperazin-1-yl)butyl)-1,4-benzoxazepin-5-one] yielded a melting point of 150 to 151 °C. Also, in the data set on male Wistar rats, the minimal effective dose was determined as 30 mg/kg.

Compound `COc1ccc2c(c1)OC=CN(CCCCN1CCN(c3ncccn3)CC1)C2=O` [Example 33, 4,5-dihydro-8-methoxy-4-(4-(4-(2-pyrimidinyl)piperazin-1-yl)butyl)-1,4-benzoxazepin-5-one] came in with a melting point of 156 to 158 °C. Further, the minimal effective dose with male Wistar rats is 10 mg/kg.

In the case of `CC1=COc2ccccc2C(=O)N1CCCCN1CCN(c2ncccn2)CC1` [Example 34, 4,5-dihydro-3-methyl-4-(4-(4-(2-pyrimidinyl)piperazin-1-yl)butyl)-1,4-benzoxazepin-5-one], the melting point lay within 141 to 142 °C. Also, the minimal effective dose in the data set on male Wistar rats is 30 mg/kg.

`CC1=COc2ccccc2C(=O)N1CCCCN1CCN(c2cccc(Cl)n2)CC1` [Example 35, 4-(4-(4-(2-chloropyridin-6-yl)piperazin-1-yl)butyl)-4,5-dihydro-3-methyl-1,4-benzoxazepin-5-one]: the melting point is 166 to 168 °C. On dopamine D2 receptor, the IC50 was 294 nM. Also, the IC50 in data set [1] (setting [3]) came out at 1.5 nM. In addition, the D2/5-HT1A in data set [1] worked out at 196.

`CC1=COc2cc(C)ccc2C(=O)N1CCCCN1CCN(c2cccc(C)c2)CC1` [Example 37] showed a melting point of 113 to 115 °C.

On to `COc1ccccc1N1CCN(CCCCN2C(=O)c3ccc(C)cc3OC=C2C)CC1` [Example 38, 4,5-dihydro-3,8-dimethyl-4-(4-(4-(2-methoxyphenyl)piperazin-1-yl)butyl)-1,4-benzoxazepin-5-one], for which the melting point lay in the range of 88 to 90 °C.

For `CC1=COc2ccc(C)cc2C(=O)N1CCCCN1CCN(c2ncc(F)c(N)n2)CC1` [Example 40, 4-(4-(4-(4-amino-5-fluoropyrimidin-2-yl)piperazin-1-yl)butyl)-4,5-dihydro-3,7-dimethyl-1,4-benzoxazepin-5-one], the melting point lay within 243 to 245 °C.

`O=C1c2ccccc2OC=C(Cl)N1CCCCN1CCN(c2ccccn2)CC1` [Example 46, 3-chloro-4,5-dihydro-4-(4-(4-(2-pyridyl)piperazin-1-yl)butyl)-1,4-benzoxazepin-5-one]: the minimal effective dose in the data set on male Wistar rats came to 10 mg/kg; with Wistar male rats it was 0.3 mg/kg. In addition, the half-inhibitory concentration (IC50) at dopamine D2 receptor turned out to be 51 nM; in data set [1] (setting [3]), 0.77 nM. Besides, in data set [1], the D2/5-HT1A was 67.

On to `O=C1c2ccc(Cl)cc2OC=C(Cl)N1CCCCN1CCN(c2ccccn2)CC1` [Example 48, 3,8-dichloro-4,5-dihydro-4-(4-(4-(2-pyridyl)piperazin-1-yl)butyl)-1,4-benzoxazepin-5-one], for which the minimal effective dose stood at 30 mg/kg with male Wistar rats and 1 mg/kg with Wistar male rats. For the same compound, the IC50 on dopamine D2 receptor was 233 nM; in data set [1] (setting [3]), 1.2 nM. Moreover, the D2/5-HT1A in data set [1] is 194.

In data set [2], `O=C1c2ccccc2OC=C(Cl)N1CCCCN1CC=C(c2ncccn2)CC1` [Example 56, 3-chloro-4,5-dihydro-4-(4-(4-(2-pyrimidinyl)-1,2,5,6-tetrahydropyridin-1-yl)butyl)-1,4-benzoxazepin-5-one] showed an LD50 at 24 h of at least 100 mg/kg. Besides, the results for the concentration for half-maximal inhibition (IC50) (on dopamine D2 receptor; in data set [1]) were 494 nM and 1.38 nM, respectively. Besides, in data set [1], the D2/5-HT1A is listed as 358. The minimal effective dose in the data set with Wistar male rats is 1 mg/kg.

Regarding `O=C1c2ccccc2OC=C(Cl)N1CCCCN1CC=C(c2ccccn2)CC1` [Example 82], the minimal effective dose with male Wistar rats was found to be 30 mg/kg; in the data set with Wistar male rats, 0.3 mg/kg. Also, the IC50 stood at 128 nM on dopamine D2 receptor and 0.47 nM in data set [1] (setting [3]). The D2/5-HT1A in data set [1] amounted to 84.
